Source: US10570179B2, “Substituted urea depsipeptide analogs as activators of the CLPP endopeptidase” (priority 2016, dated 2020)
Values after ≈ are worked out from the molar mass of the structure shown. Where two headings read alike, the source gives them in different places. Numbered stars: 1 amine (or outer) side, 2 acyl side, 3 side chain; on linkers, the order of the positions; unused ones are H or OH. Bridge positions count the residues as written; N and C are the ends. Square brackets hold non-standard residues; d marks the D form. Peptide text beside a SMILES is read from it. * marks the point of attachment. ξ: configuration not given here. Piperazine(2S-CO,4-Me) = CN1CCN[C@H](C(=O)O)C1; Phe(3,5-F2) = N[C@@H](Cc1cc(F)cc(F)c1)C(=O)O; Phe(3,5-Me2) = Cc1cc(C)cc(C[C@H](N)C(=O)O)c1; Phe(3-Me) = Cc1cccc(C[C@H](N)C(=O)O)c1; NH(4-Cl-2-F-phenyl) = Fc1cc(Cl)ccc1N*; Pro(4R-Me) = C[C@H]1CN[C@H](C(=O)O)C1; NH(4-Me-phenyl) = Cc1ccc(N*)cc1; ξNMeThr = CNC(C(=O)O)[C@@H](C)O; aThr = C[C@H](O)[C@H](N)C(=O)O; Pip = O=C(O)[C@@H]1CCCCN1; CO = O=C([*:1])[*:2]

What was measured:
[1] = Cytotoxicity assay (CellTiter-Glo cell viability); type: cell-based; details: African green monkey
Experimental: Cytotoxicity was determined by determining the effect of compounds on cell viability. Vero (kidney epithelial cells; ATCC CCL-81) monolayers were trypsinized and 5000 cells/well were seeded (10-15% confluency) into white-wall, flat bottom 96 well microwell plates (Corning) using enriched Dulbecco's Modified Eagle's Medium (Hyclone: DMEM/High Glucose) containing 10% Fetal Bovine Serum (ATCC-30-2020). Plates were incubated overnight at 37° C. in the presence of 5% CO2. Drug-free media was then replaced with media containing serial dilutions of test compound or DMSO carrier. After an additional 72 hours of incubation, viability was indirectly measured using the CellTiter-Glo® Luminescent Cell Viability (Promega) assay. Assay plates were read at peak emission wavelength of 560 nm using a EnVision® Multilabel Plate Reader (Perkin Elmer) or PHERAstar FS Multilabel reader (BMG, Cary, N.C.). The concentration of test compounds that inhibited growth by 50% (IC50 value) was computed using nonlinear regression based fitting of inhibition curves using log [inhibitor] vs. response-variable slope (four parameters)—symmetrical equation, in GraphPad Prism version 6 [GraphPad Software, La Jolla, Calif. USA, www.graphpad.com]. For each experiment, compounds were tested in duplicate. IC50 values presented are the range of two biologically independent experiments.

B. subtilis = assay: Minimal inhibitory concentration, microbroth dilution; type: cell-based; details: Bacillus subtilis, read-out: Minimal Inhibitory Concentrations (μM) B. subtilis
Summary of the method: (§1)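 MIC is recorded by eye as the lowest drug concentration that stops bacterial growth. Compound is serially diluted twofold in broth, starting at 200 μM final, and bacteria are added at roughly 10^5 cfu/mL. Incubation runs overnight at 37 °C under aerobic conditions, per CLSI guidance.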

S. pneumoniae = assay: as above; type: cell-based; details: Streptococcus pneumoniae; MIC; read-out: Minimal Inhibitory Concentrations (μM) S. pneumoniae
Summary of the method: as §1

S. pyogenes = assay: as above; type: cell-based; details: Streptococcus pyogenes, read-out: Minimal Inhibitory Concentrations (μM) S. pyogenes
Summary of the method: as §1

Plasma pharmacokinetics = type: in vivo, male BALB/c mice; details: male, BALB/c, mouse, in vivo, iv

SMILES	IC50 at 72 h [1] [µM]	MIC (B. subtilis; MIC) [µM]	MIC (S. pneumoniae) [µM]	MIC (S. pyogenes; MIC) [µM]	IC50 at 72 h ([1]; Vero cells, 72 hours, read-out: Cytotoxicity IC50) [µM]	MIC (B. subtilis) [µM]	MIC (S. pyogenes) [µM]	AUC(0-inf) (Plasma pharmacokinetics) [ng·h/mL]	AUC(0-t) (Plasma pharmacokinetics) [ng·h/mL]	C^0 (Plasma pharmacokinetics) [ng/mL]	clearance (Plasma pharmacokinetics) [mL/min/kg]	half-life (Plasma pharmacokinetics) [h]	Vd (Plasma pharmacokinetics; 10 mg/kg, Route i.v., read-out: Vss) [L/kg]
Cc1cccc(C[C@H](NC(=O)Nc2ccc(Cl)cc2F)C(=O)N[C@@H]2C(=O)N3CCC[C@H]3C(=O)N(C)C([C@@H](C)O)C(=O)N[C@@H](C)C(=O)N3C[C@H](C)C[C@H]3C(=O)O[C@H]2C)c1 (stereo partly drawn) [Compound 5] ({NH(4-Cl-2-F-phenyl)-CO}-[Phe(3-Me)][aThr]P[ξNMeThr]A[Pro(4R-Me)]; ester 2-C)	> 10	0.156 (≈ 0.129 µg/mL)	0.039 (≈ 0.0323 µg/mL)	0.078 (≈ 0.0646 µg/mL)	–	–	–	–	–	–	–	–	–
C[C@@H]1C[C@H]2C(=O)OC[C@H](NC(=O)[C@H](Cc3cc(F)cc(F)c3)NC(=O)Nc3ccc(Cl)cc3F)C(=O)N3CCC[C@H]3C(=O)N3CCN(C)C[C@H]3C(=O)N[C@@H](C)C(=O)N2C1 [Compound 34] ({NH(4-Cl-2-F-phenyl)-CO}-[Phe(3,5-F2)]SP[Piperazine(2S-CO,4-Me)]A[Pro(4R-Me)]; ester 2-C)	> 50	< 0.02	0.039 (≈ 0.033 µg/mL)	0.078 (≈ 0.0661 µg/mL)	–	–	–	–	–	–	–	–	–
Cc1cccc(C[C@H](NC(=O)Nc2ccc(Cl)cc2F)C(=O)N[C@H]2COC(=O)[C@@H]3C[C@@H](C)CN3C(=O)[C@H](C)NC(=O)[C@@H]3CCCCN3C(=O)[C@@H]3C[C@H](N)CN3C2=O)c1 [Compound 12, (S)—N-((2R,6S,8AS,14AS,16S,20S,23AS)-16-AMINO-2,6-DIMETHYL-5,8,14,19,23-PENTAOXOOCTADECAHYDRO-1H,5H,14H,19H-PYRIDO[2,1-I]DIPYRROLO[2,1-C:2′,1′-L][1]OXA[4,7,10,13]TETRAAZACYCLOHEXADECIN-20-YL)-2-(3-(4-CHLORO-2-FLUOROPHENYL)UREIDO)-3-(M-TOLYL)PROPANAMIDE]	> 50	1.25 (≈ 1.03 µg/mL)	0.156 (≈ 0.129 µg/mL)	0.313 (≈ 0.258 µg/mL)	–	–	–	–	–	–	–	–	–
Cc1ccc(NC(=O)N[C@@H](Cc2cc(C)cc(C)c2)C(=O)N[C@@H]2C(=O)N3CCC[C@H]3C(=O)N3CCCC[C@H]3C(=O)N[C@@H](C)C(=O)N3C[C@H](C)C[C@H]3C(=O)O[C@H]2C)cc1 [Compound 2, (S)-3-(3,5-DIMETHYLPHENYL)-2-(3-(P-TOLYL)UREIDO)-N-((2R,6S,8AS,14AS,20S,21S,23AS)-2,6,21-TRIMETHYL-5,8,14,19,23-PENTAOXOOCTADECAHYDRO-1H,5H,14H,19H-PYRIDO[2,1-I]DIPYRROLO[2,1-C:2′,1′-L][1]OXA[4,7,10,13]TETRAAZACYCLOHEXADECIN-20-YL)PROPANAMIDE] ({NH(4-Me-phenyl)-CO}-[Phe(3,5-Me2)][aThr]P[Pip]A[Pro(4R-Me)]; ester 2-C)	–	–	–	–	> 100	0.625 (≈ 0.5 µg/mL)	> 20	–	–	–	–	–	–
Cc1cccc(C[C@H](NC(=O)Nc2ccc(Cl)cc2F)C(=O)N[C@@H]2C(=O)N3CCC[C@H]3C(=O)N3CCCC[C@H]3C(=O)N[C@@H](C)C(=O)N3C[C@H](C)C[C@H]3C(=O)O[C@H]2C)c1 [Compound 3, (S)-2-(3-(4-CHLORO-2-FLUOROPHENYL)UREIDO)-3-(M-TOLYL)-N-((2R,6S,8AS,14AS,20S,21S,23AS)-2,6,21-TRIMETHYL-5,8,14,19,23-PENTAOXOOCTADECAHYDRO-1H,5H,14H,19H-PYRIDO[2,1-I]DIPYRROLO[2,1-C:2′,1′-L][1]OXA[4,7,10,13]TETRAAZACYCLOHEXADECIN-20-YL)PROPANAMIDE] ({NH(4-Cl-2-F-phenyl)-CO}-[Phe(3-Me)][aThr]P[Pip]A[Pro(4R-Me)]; ester 2-C)	–	0.078 (≈ 0.0643 µg/mL)	–	0.313 (≈ 0.258 µg/mL)	–	–	–	12600	12500	13482.56	13.3	3.4	2.08
